Reference: patent US7560435B2, “Therapeutic use of riboside of 5-aminoimidazole-4-carboxamide (acadesine)” (Advanced In Vitro Cell Technologies, S. A., priority 2002, dated 2009)

Tests used:
B-CLL cells = assay: cells; type: cell-based, human
Source text: Forty-six patients with B-CLL, seven patients with SMZL, two patients with lymphoproliferative disorder without a specific diagnosis, and four healthy donors were studied. All patients were diagnosed according to standard clinical and laboratory criteria. Written informed consent was obtained from all patients. Mononuclear cells from peripheral blood samples were isolated by centrifugation on a Ficoll/Hypaque (Seromed, Berlin, Germany) gradient and cryopreserved in liquid nitrogen in the presence of 10% dimethyl sulfoxide (DMSO).
Lymphocytes were cultured immediately after thawing at a concentration of 2 to 5×10^6 cells/ml in RPMI 1640 culture medium (Biological Industries, Beit Haemek, Israel) supplemented with 10% heat-inactivated fetal calf serum (Gibco-BRL, Paisley, GB), 1% glutamine, and 1% penicillin-streptomycin at 37° C. in a humidified atmosphere containing 5% carbon dioxide.
Apoptosis was measured by annexin V binding. Exposure of phosphatidylserine was quantified by surface annexin V staining as previously described (cf. B. Bellosillo et al., Blood 1998, vol. 92, pp. 1406-1414). To analyze apoptosis in T cells from the samples, 500,000 cells were incubated for 24 h with the indicated factors. Cells were then washed in phosphate-buffered saline (PBS) solution, and incubated in 50 μl of annexin binding buffer with APC-conjugated anti-CD3 and PE-conjugated anti-CD19 for 10 minutes in the dark. Cells were then diluted with annexin binding buffer to a volume of 250 μl and incubated with 0.5 μl of annexin V-FITC for 15 minutes in the dark. 250 μl of annexin binding buffer and 5 μl of PI were added just before flow cytometric analysis. Data were analyzed using Cell Quest software.
The effect of several doses of acadesine, ranging from 50 μM to 1 mM, on the viability of B-CLL cells, was studied. […] Cells from 5 patients were incubated for 24 h with various doses of acadesine as indicated.
Cells from 46 patients were incubated for 24 h with (+) or without (−) 0.5 mM acadesine. Viability (V) was measured by analysis of phosphatidylserine exposure and PI uptake, and it is expressed as the percentage of non apoptotic cells. All the patients were sensitive to acadesine and the viability decreased from 67±11% to 26±14% (n=46).

[1] = test system: CD3+/CD19- T cells from B-CLL patients; assay: Apoptosis/viability by flow cytometry, T cells from B-CLL samples; type: cell-based, human; settings: 24 h
Source text: Forty-six patients with B-CLL, seven patients with SMZL, two patients with lymphoproliferative disorder without a specific diagnosis, and four healthy donors were studied. All patients were diagnosed according to standard clinical and laboratory criteria. Written informed consent was obtained from all patients. Mononuclear cells from peripheral blood samples were isolated by centrifugation on a Ficoll/Hypaque (Seromed, Berlin, Germany) gradient and cryopreserved in liquid nitrogen in the presence of 10% dimethyl sulfoxide (DMSO). […] Apoptosis was measured by annexin V binding. Exposure of phosphatidylserine was quantified by surface annexin V staining as previously described (cf. B. Bellosillo et al., Blood 1998, vol. 92, pp. 1406-1414). […] Data were analyzed using Cell Quest software. To analyze whether the induction of apoptosis in B-CLL patients was selective to B cells, we counted the apoptotic T cells (CD3 positive cells) in four B-CLL blood samples treated for 24 h with several doses of acadesine. […] Viability (V) was measured as non apoptotic CD3+/CD19− T cells (empty symbols) or CD3−/CD19+B cells (full symbols), and it is expressed as the percentage of the viability of non treated cells. […] Viability is expressed as the mean value ± standard deviation.

[2] = test system: B cells from healthy donors; assay: Apoptosis/viability by flow cytometry, B cells from healthy donors; type: cell-based, human; settings: 0.5 mM, 24 h, 4 healthy donors
Source text: (§1) Forty-six patients with B-CLL, seven patients with SMZL, two patients with lymphoproliferative disorder without a specific diagnosis, and four healthy donors were studied. All patients were diagnosed according to standard clinical and laboratory criteria. Written informed consent was obtained from all patients. Mononuclear cells from peripheral blood samples were isolated by centrifugation on a Ficoll/Hypaque (Seromed, Berlin, Germany) gradient and cryopreserved in liquid nitrogen in the presence of 10% dimethyl sulfoxide (DMSO). Lymphocytes were cultured immediately after thawing at a concentration of 2 to 5×10^6 cells/ml in RPMI 1640 culture medium (Biological Industries, Beit Haemek, Israel) supplemented with 10% heat-inactivated fetal calf serum (Gibco-BRL, Paisley, GB), 1% glutamine, and 1% penicillin-streptomycin at 37° C. in a humidified atmosphere containing 5% carbon dioxide. Apoptosis was measured by annexin V binding. Exposure of phosphatidylserine was quantified by surface annexin V staining as previously described (cf. B. Bellosillo et al., Blood 1998, vol. 92, pp. 1406-1414). To analyze apoptosis in T cells from the samples, 500,000 cells were incubated for 24 h with the indicated factors. […] Data were analyzed using Cell Quest software. […] Viability is expressed as the mean value ± standard deviation.

[3] = test system: B cells from patients with SMZL; assay: Apoptosis/viability by flow cytometry, B cells from SMZL patients; type: cell-based, human; settings: 0.5 mM and 1.0 mM, 24 h, seven SMZL patients
Source text: as §1, with “1406-1414).” for “1406-1414). To analyze apoptosis in T cells from the samples, 500,000 cells were incubated for 24 h with the indicated factors.”, “Viability (V) was measured by analysis of phosphatidylserine exposure and PI uptake, and it” for “Viability”, “percentage of non apoptotic cells. […]” for “mean value ± standard deviation.”

[4] = test system: B cells from patients with lymphoproliferative disorder without a specific diagnosis; assay: Apoptosis/viability by flow cytometry, B cells, lymphoproliferative disorder without a specific diagnosis; type: cell-based, human; settings: 0.5 mM and 1.0 mM, 24 h, two patients
Source text: as §1, with “1406-1414).” for “1406-1414). To analyze apoptosis in T cells from the samples, 500,000 cells were incubated for 24 h with the indicated factors.”, “Viability (V) was measured by analysis of phosphatidylserine exposure and PI uptake, and it” for “Viability”, “percentage of non apoptotic cells. […]” for “mean value ± standard deviation.”

Jurkat (T cell line) = assay: Effects of acadesine in cell lines: Jurkat; type: cell-based
Source text: (§2) Another important advantage of the invention is the selectivity and the concentration of acadesine necessary to induce apoptosis. […] This means that the possible side effects coming from damaging other cellular types are minor when using acadesine as a therapeutical agent.

JVM-2 = assay: Effects of acadesine in cell lines: JVM-2; type: cell-based
Source text: as §2

[5] = test system: MCF-7 (breast cancer line); assay: Effects of acadesine in cell lines: MCF-7; type: cell-based
Source text: as §2

293 = assay: Effects of acadesine in cell lines: 293; type: cell-based
Source text: as §2

[6] = test system: Hela (cervix cancer line); assay: Effects of acadesine in cell lines: Hela; type: cell-based
Source text: as §2

HUH7 (liver cancer line) = assay: Effects of acadesine in cell lines: HUH7; type: cell-based
Source text: as §2

[7] = healthy individuals, given intravenously; cited from earlier work

Compound: NC(=O)c1ncn([C@@H]2O[C@H](CO)[C@@H](O)[C@H]2O)c1N [acadesine, 5-amino-1-β-D-ribofuranosyl-1H-imidazole-4-carboxamide]
- Viability of B cells (B-CLL cells; 0.5 mM, 24 h, 18 B-CLL patients): markedly reduced
- Induction of apoptosis (B-CLL cells; 24 h incubation, doses 50 μM to 1 mM, cells from 5 patients): induced apoptosis in a dose-dependent manner
- viability at 500 µM (B-CLL cells; Homo sapiens, B-CLL, 24 h, read-out: Viability (percentage of non apoptotic cells)): 26 ± 14%
- EC50 (B-CLL cells; Homo sapiens, B-CLL, 24 h incubation, 50 μM to 1 mM, cells from 5 patients (n=5), read-out: EC50 (viability of B-CLL cells)): 380 ± 60 µM
- Acadesine-induced apoptosis in T cells ([1]; doses up to 1 mM, four B-CLL blood samples): resistant to acadesine-induced apoptosis
- Viability of T cells ([1]; higher concentrations 2-4 mM): only slightly affected the viability
- Viability of B cells [2]: markedly reduced
- Viability of B cells [3]: markedly reduced
- Viability of B cells [4]: markedly reduced
- Sensitivity to acadesine relative to B-CLL cells (Jurkat (T cell line)): less sensitive to acadesine than B-CLL cells
- Sensitivity to acadesine relative to B-CLL cells (JVM-2): less sensitive to acadesine than B-CLL cells
- Sensitivity to acadesine relative to B-CLL cells [5]: less sensitive to acadesine than B-CLL cells
- Sensitivity to acadesine relative to B-CLL cells 293: less sensitive to acadesine than B-CLL cells
- Sensitivity to acadesine relative to B-CLL cells [6]: less sensitive to acadesine than B-CLL cells
- Sensitivity to acadesine relative to B-CLL cells (HUH7 (liver cancer line)): less sensitive to acadesine than B-CLL cells
- Concentrations in plasma [7]: 200 µM
- Tolerability [7]: well tolerated
